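Dose response: 5 concentrations. Exposure: 48 h. Format: 96-well plates. Endpoint: linear interpolation; highest concentration if not reached. GI50 is the concentration that inhibits growth by half.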 Activity calls are given as the source filed them. Rule as the data show it: active = GI50 up to about 1.1 µM and inactive = higher.
Columns and labels:
Assay in all cases: NCI anticancer screen, dose series, 48 h
[1] = tested on: DMS-273
[2] = tested on: SW-620
[3] = tested on: EKVX
[4] = tested on: A498
[5] = tested on: UACC-62
[6] = tested on: IGROV-1
[7] = tested on: SNB-75
[8] = tested on: HCT-116
[9] = tested on: RXF 393
[10] = tested on: ACHN
[11] = tested on: OVCAR-5
[12] = tested on: OVCAR-8
[13] = tested on: K562
[14] = tested on: HOP-18
[15] = tested on: RPMI-8226
[16] = tested on: HOP-92
[17] = tested on: CAKI-1
[18] = tested on: OVCAR-3
[19] = tested on: LXFL 529
[20] = tested on: HT-29
[21] = tested on: Malme-3M
[22] = tested on: KM-20L2
[23] = tested on: COLO 205
[24] = tested on: SK-MEL-2
[25] = tested on: NCI-H522
[26] = tested on: MOLT-4
[27] = tested on: SF-268
[28] = tested on: TK-10
[29] = tested on: NCI-H460
[30] = tested on: NCI-H23
[31] = tested on: U-251
[32] = tested on: SR
[33] = tested on: SK-MEL-5
[34] = tested on: HCC 2998
[35] = tested on: SNB-19
[36] = tested on: SF-295
[37] = tested on: OVCAR-4
[38] = tested on: KM12
[39] = tested on: M19-MEL
[40] = tested on: A549
[41] = tested on: DMS-114
[42] = tested on: M14
[43] = tested on: UACC-257
[44] = tested on: DLD-1
[45] = tested on: HOP-62
[46] = tested on: CCRF-CEM
[47] = tested on: LOX IMVI
[48] = tested on: 786-0
[49] = tested on: HCT-15
[50] = tested on: UO-31
[51] = tested on: XF498
[52] = tested on: SK-MEL-28
[53] = tested on: SK-OV-3
[54] = tested on: SN12C
[55] = tested on: HL-60
[56] = tested on: NCI-H226
[57] = tested on: SF-539

CCOC(=O)C(=O)/C=C(\C)Nc1c(NC2OCC(OC(C)=O)C(OC(C)=O)C2OC(C)=O)nc(SC)[nH]c1=O (stereo not given)
GI50 [1]: > 100 µM (inactive) | GI50 [2]: > 100 µM (inactive) | GI50 [3]: > 100 µM (inactive) | GI50 [4]: > 100 µM (inactive) | GI50 [5]: > 100 µM (inactive) | GI50 [6]: > 100 µM (inactive) | GI50 [7]: > 100 µM (inactive) | GI50 [8]: > 100 µM (inactive) | GI50 [9]: > 100 µM (inactive) | GI50 [10]: > 100 µM (inactive) | GI50 [11]: > 100 µM (inactive) | GI50 [12]: > 100 µM (inactive) | GI50 [13]: > 100 µM (inactive) | GI50 [14]: > 100 µM (inactive) | GI50 [15]: > 100 µM (inactive) | GI50 [16]: > 100 µM (inactive) | GI50 [17]: > 100 µM (inactive) | GI50 [18]: > 100 µM (inactive) | GI50 [19]: > 100 µM (inactive) | GI50 [20]: > 100 µM (inactive) | GI50 [21]: > 100 µM (inactive) | GI50 [22]: > 100 µM (inactive) | GI50 [23]: > 100 µM (inactive) | GI50 [24]: > 100 µM (inactive) | GI50 [25]: > 100 µM (inactive) | GI50 [26]: > 100 µM (inactive) | GI50 [27]: > 100 µM (inactive) | GI50 [28]: > 100 µM (inactive) | GI50 [29]: > 100 µM (inactive) | GI50 [30]: > 100 µM (inactive) | GI50 [31]: > 100 µM (inactive) | GI50 [32]: > 100 µM (inactive) | GI50 [33]: > 100 µM (inactive) | GI50 [34]: > 100 µM (inactive) | GI50 [35]: > 100 µM (inactive) | GI50 [36]: > 100 µM (inactive) | GI50 [37]: > 100 µM (inactive) | GI50 [38]: > 100 µM (inactive) | GI50 [39]: > 100 µM (inactive) | GI50 [40]: > 100 µM (inactive) | GI50 [41]: > 100 µM (inactive) | GI50 [42]: > 100 µM (inactive) | GI50 [43]: > 100 µM (inactive) | GI50 [44]: > 100 µM (inactive) | GI50 [45]: > 100 µM (inactive) | GI50 [46]: > 100 µM (inactive) | GI50 [47]: > 100 µM (inactive) | GI50 [48]: > 100 µM (inactive) | GI50 [49]: > 100 µM | GI50 [50]: > 100 µM (inactive) | GI50 [51]: > 100 µM (inactive) | GI50 [52]: > 100 µM (inactive) | GI50 [53]: > 100 µM (inactive) | GI50 [54]: > 100 µM (inactive) | GI50 [55]: > 10 µM (inactive)

O=C1OC(CC(=O)c2ccc(Cl)cc2)C(Cl)=C1Cl (stereo not given)
GI50 [1]: > 100 µM (inactive) | GI50 [2]: > 100 µM (inactive) | GI50 [3]: > 100 µM (inactive) | GI50 [4]: > 100 µM (inactive) | GI50 [5]: > 100 µM (inactive) | GI50 [6]: > 100 µM (inactive) | GI50 [7]: > 100 µM (inactive) | GI50 [8]: > 100 µM (inactive) | GI50 [10]: > 100 µM (inactive) | GI50 [11]: > 100 µM (inactive) | GI50 [12]: > 100 µM (inactive) | GI50 [13]: 54.6 µM (inactive) | GI50 [14]: > 100 µM (inactive) | GI50 [15]: 46.6 µM (inactive) | GI50 [16]: > 100 µM (inactive) | GI50 [17]: > 100 µM (inactive) | GI50 [18]: > 100 µM (inactive) | GI50 [19]: > 100 µM (inactive) | GI50 [20]: > 100 µM (inactive) | GI50 [21]: > 100 µM (inactive) | GI50 [22]: > 100 µM (inactive) | GI50 [23]: > 100 µM (inactive) | GI50 [24]: > 100 µM (inactive) | GI50 [25]: 94.8 µM (inactive) | GI50 [26]: 39.2 µM (inactive) | GI50 [27]: > 100 µM (inactive) | GI50 [28]: > 100 µM (inactive) | GI50 [29]: > 100 µM (inactive) | GI50 [30]: > 100 µM (inactive) | GI50 [31]: > 100 µM (inactive) | GI50 [32]: 48.3 µM (inactive) | GI50 [33]: > 100 µM (inactive) | GI50 [34]: > 100 µM (inactive) | GI50 [35]: > 100 µM (inactive) | GI50 [36]: > 100 µM (inactive) | GI50 [37]: > 100 µM (inactive) | GI50 [38]: > 100 µM (inactive) | GI50 [39]: > 100 µM (inactive) | GI50 [40]: > 100 µM (inactive) | GI50 [41]: > 100 µM (inactive) | GI50 [42]: > 100 µM (inactive) | GI50 [43]: > 100 µM (inactive) | GI50 [44]: 52.6 µM (inactive) | GI50 [45]: > 100 µM (inactive) | GI50 [46]: 35.6 µM (inactive) | GI50 [56]: > 100 µM (inactive) | GI50 [48]: > 100 µM (inactive) | GI50 [49]: > 100 µM | GI50 [57]: > 100 µM (inactive) | GI50 [50]: > 100 µM (inactive) | GI50 [51]: > 100 µM (inactive) | GI50 [52]: > 100 µM (inactive) | GI50 [53]: > 100 µM (inactive) | GI50 [54]: > 100 µM (inactive) | GI50 [55]: 26 µM (inactive)

Source: ChEMBL document CHEMBL1201862, “PubChem BioAssay data set” (2004)
